Experimental data published in patent publication US20040220205A1 (priority 2001, published 2004).
Where “and” joins values, the source holds several entries; their conditions need not be identical. Identical values can stand only once. Counter-ions that a name gives are not always drawn.

Key:
rats = experiment: Behavioural experiment - injection into duodenum (with oral control); type: in vivo, rat; details: for duration of dopaminergic behavior: dur (total duration of action) / duration of dopaminergic behavior: intense stereotypy / duration of dopaminergic behavior: less intense stereotypy: rat, bolus injection into duodenum; for duration of dopaminergic behavior: intense stereotypy / duration of dopaminergic behavior: less intense stereotypy: period after injection
Text: These rats had been operated 1-14 days before the experiment. A plastic tubing was introduced entering through the duodenum wall at about the mid section and bent in such a way that it had its duct directed downwards (i.e. aiming downstream towards the jejunum and being about 2 cm long). An experienced scientist observed the animals for the entire period of pharmacological activity, scoring the behavior and emphasizing the following details:
yawning, sniffing, chewing, licking, rearing, grooming, penile grooming, locomotor activity and stereotypy. The total duration of action where one or several of these behaviors were present was scored.

[1] = test system: dopamine release (striatum); experiment: Microdialysis experiment (striatum) with one entero-coated tablet; type: in vivo; details: rat striatum microdialysis
Method: One entero-coated tablet prepared as described in Example 1 and containing about 5 mg of NPA hydrochloride was administered to a rat in the way described in Pharmacological Experiment 2 and a standard microdialysis was carried out.
Pharmacological Experiment 2 was repeated but using an entero-coated tablet containing about 5 mg of mono-pivaloyl-apomorphine base instead of NPA hydrochloride.
(§1) Pharmacological Experiment 2 was repeated but using an enterocoated tablet prepared as described in Example 3 containing about 1 mg of mono-pivaloyl-N-propyl-noraporphine (MPNPA) base instead of NPA hydrochloride.

rat = experiment: Behavioural experiment - entero-coated pill; type: in vivo
Method: One entero-coated tablet prepared as described in Example 1 and containing about 5 mg of NPA hydrochloride was placed under anesthesia (isoflurane) in the throat of a rat and pushed down the throat with a blunt instrument. Within five minutes, the rat was awake and exploring the cage. After about 3 to 4 hours, the rat began to show dopaminergic stimulatory signs like sniffing, chewing, penile licking, grooming and stereotypy with rearing, locomotor activity, intense sniffing and also licking. This stereotypy lasted for more than 24 hours.
as §1

[2] = earlier reports on symmetric di-esters of aporphines; cited from earlier work
[3] = control experiment, administered orally to the same rat, 4 mg/kg
[4] = one entero-coated tablet containing about 5 mg NPA hydrochloride
[5] = one entero-coated tablet containing about 5 mg, pushed down the throat
[6] = one entero-coated tablet containing about 5 mg mono-pivaloyl-apomorphine base

With CN1CCc2cccc3c2[C@H]1Cc1ccc(O)c(O)c1-3 [Apomorphine Hydrochloride, apomorphine hydrochloride] the dopaminergic stimulation observed (rats; [3]) was “Very weak dopaminergic stimulation”, the “time period in which dopaminergic effects were observed” value (rats; [3]) was 10 to 20 min and the “duration of dopaminergic behavior: dur (total duration of action)” value (shortened to “duration of dopaminergic behavior: dur”) (rats; 4.0 mg/kg) was 90 min. The “duration of dopaminergic behavior: intense stereotypy” value (rats; 4.0 mg/kg) was “intense stereotypy (5-75); less intense min”, the “duration of dopaminergic behavior: less intense stereotypy” value (from here on “duration … less intense stereotypy”) (rats; 4.0 mg/kg) was 75 to 85 min and the “duration of dopaminergic behavior: dur” value (rats; 5.0 mg/kg, hydrochloride) was 95 min and 60 min. For the same compound, the “duration … less intense stereotypy” value (rats; 5.0 mg/kg, hydrochloride, 5 mg/kg) was 40 to 90 min and 45 to 55 min.

With CCCN1CCc2cccc3c2C1Cc1ccc(O)c(OC(=O)C(C)(C)C)c1-3 (stereo not drawn) [MPNPA, mono-pivaloyl-N-propyl-noraporphine] the “period of continuous decrease of dopamine release” value ([1]; one entero-coated tablet containing about 1 mg MPNPA base) was “between one hour and four hours”, the dopamine release ([1]; one entero-coated tablet containing about 1 mg MPNPA base, at 18 hours after application of the pill) was 80 % of controls and the “dopamine release, maximal decrease” value ([1]; one entero-coated tablet containing about 1 mg MPNPA base, at four hours) was 30 % of controls. The “period of intense stereotypy” value (rat; one entero-coated tablet containing about 1 mg MPNPA base, observed during the microdialysis experiment) was “between four hours and eight hours”.

With CCCN1CCc2cccc3c2[C@H]1Cc1ccc(O)c(O)c1-3 [NPA hydrochloride, 6aR-(-)-N-propyl-norapomorphine] the “dopamine release, maximal decrease” value [1, 4] was “about 20% of control values”, the “time of maximal decrease in dopamine release” value [1, 4] was “after about four hours” and the “duration of maximal decrease in dopamine release” value ([1]; one entero-coated tablet containing about 5 mg NPA hydrochloride, until the experiment was stopped) was “lasting for several hours”. For the same compound, the duration of stereotypy (rat; [5]) was “more than 24 hours” and the “time until dopaminergic stimulatory signs began” value (rat; [5]) was 3 to 4 h.

With CCCN1CCc2cccc3c2[C@H]1Cc1ccc(O)c(O)c1-3 [NPA, 6aR-(-)-N-propyl-norapomorphine] the “duration of dopaminergic behavior: dur” value (rats; 5.0 mg/kg) was > 540 min.

For CN1CCc2cccc3c2C1Cc1ccc(OC(=O)C(C)(C)C)c(OC(=O)C(C)(C)C)c1-3 (stereo not drawn) [di-pivaloyl ester, di-pivaloyl esters of apomorphine], the “activity compared with parent compound apomorphine” value [2] is given as “much less active”.

In the case of monopivaloyl-apomorphine [Mono-Piv-Apo], the “dopamine release at maximal decrease” value [1, 6] is reported as 80 % of control values, the “maximal decrease of dopamine release” value [1, 6] is reported as 20% and the “time after which dopamine release decreases” value [1, 6] is reported as “about 60 minutes”. The “time until dopamine release is back to control values” [1, 6] was “after about eight hours”, the “duration of dopaminergic behavior: dur” value (rats; 4.6 mg/kg) was 120 min and the “duration of dopaminergic behavior: intense stereotypy” value (rats; 4.6 mg/kg) was “intense stereotypy (5-105); less intense min”. The “duration … less intense stereotypy” value (rats; 4.6 mg/kg) was 105 to 115 min, the “duration of dopaminergic behavior: dur” value (rats; 5.9 mg/kg) was 135 min and 120 min and the “duration … less intense stereotypy” value (rats; 5.9 mg/kg, 5.9 mg/kg) was 105 to 130 min and 80 to 90 min.
